Where a name gives a salt, the structure may show the parent alone. Read-outs that look alike come from different tables or passages of the source.
What was measured:
[1] = molecular target: purified human plasma kallikrein (Homo sapiens (Human), UniProt P03952); assay: Plasma kallikrein enzyme inhibition assay (chromogenic substrate S-2302); format: biochemical
Experimental: The effectiveness of compounds of the present invention as inhibitors of the coagulation Factors XIa, VIIa, IXa, Xa, XIIa, plasma kallikrein or thrombin, can be determined using a relevant purified serine protease, respectively, and an appropriate synthetic substrate. The rate of hydrolysis of the chromogenic or fluorogenic substrate by the relevant serine protease was measured both in the absence and presence of compounds of the present invention. […] A decrease in the rate of absorbance or fluorescence change in the presence of inhibitor is indicative of enzyme inhibition. […] The results of this assay are expressed as the inhibitory constant, Ki.
Values of Ki were determined by allowing the protease to react with the substrate in the presence of the inhibitor.
The following relationships were used to calculate Ki values: (Vmax*S)/(Km+S); (vo−vs)/vs=I/(Ki(1+S/Km)) for a competitive inhibitor with one binding site; or vs/vo=A+((B−A)/1+((IC50/(I)n))); and Ki−IC50/((1+S/Km) for a competitive inhibitor where:

[2] = molecular target: purified human Factor XIa (Homo sapiens (Human), UniProt P03951); assay: Factor XIa enzyme inhibition assay (chromogenic substrate S-2366)
[3] = read-out: Factor XIa Ki, measured at 25° C.
[4] = measured at 25° C. (no asterisk)

Chain of purified human plasma kallikrein (P03952 391-638): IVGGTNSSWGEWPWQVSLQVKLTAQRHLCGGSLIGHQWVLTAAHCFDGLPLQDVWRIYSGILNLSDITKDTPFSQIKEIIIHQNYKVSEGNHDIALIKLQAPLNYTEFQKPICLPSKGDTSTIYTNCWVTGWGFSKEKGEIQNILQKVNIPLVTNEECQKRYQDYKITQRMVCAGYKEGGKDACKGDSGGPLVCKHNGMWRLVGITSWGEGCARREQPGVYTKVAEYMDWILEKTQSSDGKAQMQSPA
Chain of purified human plasma kallikrein (P03952 20-390 partner): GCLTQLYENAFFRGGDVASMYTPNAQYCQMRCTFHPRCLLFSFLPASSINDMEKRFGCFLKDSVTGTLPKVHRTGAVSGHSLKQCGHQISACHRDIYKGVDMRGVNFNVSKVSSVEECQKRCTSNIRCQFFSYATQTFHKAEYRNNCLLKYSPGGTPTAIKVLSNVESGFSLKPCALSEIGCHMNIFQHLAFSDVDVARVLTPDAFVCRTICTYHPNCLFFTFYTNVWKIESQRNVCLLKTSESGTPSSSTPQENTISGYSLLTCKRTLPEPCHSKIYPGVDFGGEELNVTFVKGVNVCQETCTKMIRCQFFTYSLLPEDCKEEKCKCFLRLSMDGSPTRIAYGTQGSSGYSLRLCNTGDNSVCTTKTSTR
Chain of purified human Factor XIa (P03951 388-625): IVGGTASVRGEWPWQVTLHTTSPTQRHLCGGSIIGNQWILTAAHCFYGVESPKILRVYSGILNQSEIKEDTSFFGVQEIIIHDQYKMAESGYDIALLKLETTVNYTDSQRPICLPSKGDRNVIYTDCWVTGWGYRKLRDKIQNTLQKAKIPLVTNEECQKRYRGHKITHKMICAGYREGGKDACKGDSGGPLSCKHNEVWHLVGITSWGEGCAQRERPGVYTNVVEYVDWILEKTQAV
Chain of purified human Factor XIa (P03951 19-387 partner): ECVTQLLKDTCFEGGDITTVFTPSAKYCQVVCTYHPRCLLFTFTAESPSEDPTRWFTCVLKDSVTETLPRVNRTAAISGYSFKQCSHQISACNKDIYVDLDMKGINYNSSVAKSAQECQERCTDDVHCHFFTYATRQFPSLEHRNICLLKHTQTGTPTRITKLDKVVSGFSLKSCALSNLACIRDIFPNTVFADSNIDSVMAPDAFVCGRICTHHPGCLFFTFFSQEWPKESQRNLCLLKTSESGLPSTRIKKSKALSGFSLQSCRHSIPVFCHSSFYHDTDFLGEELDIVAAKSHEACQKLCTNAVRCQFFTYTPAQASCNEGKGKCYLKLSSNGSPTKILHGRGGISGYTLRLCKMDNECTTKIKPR

| Molecule | Ki ([1]; measured at 37° C. (*)) [nM] | Ki [2, 3] [nM] | Ki [1, 4] [nM] | also measured |
| --- | --- | --- | --- | --- |
| COC(=O)c1ccc(NC(=O)[C@H]2c3cccc(-c4cncnc4)c3CCN2C(=O)[C@H]2CC(c3cccc(Cl)c3F)=NO2)cc1 [Example 29, Methyl 4-((R)-2-((R)-3-(3-chloro-2-fluorophenyl)-4,5-dihydroisoxazole-5-carbonyl)-5-(pyrimidin-5-yl)-1,2,3,4-tetrahydroisoquinoline-1-carboxamido)benzoate] | 1200 | 58.9 | – | – |
| O=C(O)c1ccc(NC(=O)[C@@H]2c3cccc(N4CCN(CC(F)(F)F)CC4)c3CCN2C(=O)[C@H]2CC(c3cccc(Cl)c3F)=NO2)cc1 [Example 230, 4-((S)-2-((R)-3-(3-Chloro-2-fluorophenyl)-4,5-dihydroisoxazole-5-carbonyl)-5-(4-(2,2,2-trifluoroethyl)piperazin-1-yl)-1,2,3,4-tetrahydroisoquinoline-1-carboxamido)benzoic acid, 2 TFA salt] | 12.3 | – | – | Ki ([2]; read-out: Factor XIa Ki): < 5 nM |
| CN(C)C1CCN(c2cccc3c2CCN(C(=O)c2cnn(-c4cccc(Cl)c4F)c2)C3C(=O)Nc2ccc(-c3ncco3)cc2)CC1 (stereo not drawn) [Example 93, 2-(1-(3-Chloro-2-fluorophenyl)-1H-pyrazole-4-carbonyl)-5-(4-(dimethylamino)piperidin-1-yl)-N-(4-(oxazol-2-yl)phenyl)-1,2,3,4-tetrahydroisoquinoline-1-carboxamide, bis-TFA salt] | – | 6.65 | 9.65 | – |
| COC1CCN(c2cccc3c2CCN(C(=O)C2CCN(c4cccc(Cl)c4F)C2)C3C(=O)Nc2ccc(C(=O)O)cc2)CC1 (stereo not drawn) [Example 307, 4-(2-(1-(3-Chloro-2-fluorophenyl)pyrrolidine-3-carbonyl) 5-(4-methoxypiperidin-1-yl)-1,2,3,4-tetrahydroisoquinoline-1-carboxamido)benzoic acid, TFA salt] | – | – | – | Ki ([1]; measured at 25° C. (no asterisk), TFA salt): 593 nM; Ki ([2]; read-out: Factor XIa Ki, measured at 25° C., TFA salt): 165 nM |
| CN(C)C1CCN(c2cccc3c2CCN(C(=O)c2cnn(-c4cccc(Cl)c4F)c2)C3C(=O)Nc2ccc(C(=O)O)cc2)CC1 (stereo not drawn) [Example 50, 4-(2-(1-(3-chloro-2-fluorophenyl)-1H-pyrazole-4-carbonyl)-5-(4-(dimethylamino)piperidin-1-yl)-1,2,3,4-tetrahydroisoquinoline-1-carboxamido)benzoic acid, bis-TFA salt] | – | < 5 | 4.94 | – |
| COC1CCN(c2cccc3c2CCN(C(=O)c2cnn(-c4cccc(Cl)c4)c2)C3C(=O)Nc2ccc(C(=O)O)cc2)CC1 (stereo not drawn) [Example 329, 4-(2-(1-(3-chlorophenyl)-1H-pyrazole-4-carbonyl)-5-(4-methoxypiperidin-1-yl)-1,2,3,4-tetrahydroisoquinoline-1-carboxamido)benzoic acid, TFA salt] | – | 26.6 | 229 | – |
| CN1CCN(c2cccc3c2CCN(C(=O)C2CC(c4c(F)ccc(Cl)c4F)=NO2)C3C(=O)Nc2ccc(C(=O)O)cc2)CC1 (stereo not drawn) [Example 205, 4-(2-(3-(3-chloro-2,6-difluorophenyl)-4,5-dihydroisoxazole-5-carbonyl)-5-(4-methylpiperazin-1-yl)-1,2,3,4-tetrahydroisoquinoline-1-carboxamido)benzoic acid, 2 TFA salt] | – | < 5 | 0.64 | – |
| O=C(O)c1ccc(NC(=O)C2c3cccc(N4CCC(N5CCCC5=O)CC4)c3CCN2C(=O)[C@H]2CC(c3cccc(Cl)c3F)=NO2)cc1 (single isomer, unassigned) [Example 208, TFA salt] | – | < 5 | 447 | – |
| COC1CCN(c2cccc3c2CCN(C(=O)c2cn(-c4c(F)ccc(Cl)c4F)nn2)C3C(=O)Nc2ccc(C(=O)O)cc2)CC1 (racemic) [Example 254, 4-(2-(1-(3-chloro-2,6-difluorophenyl)-1H-1,2,3-triazole-4-carbonyl)-5-(4-methoxypiperidin-1-yl)-1,2,3,4-tetrahydroisoquinoline-1-carboxamido)benzoic acid, TFA salt] | – | – | 26.7 | Ki [2]: < 5 nM |
| O=C1CCC2(CCN(c3cccc4c3CCN(C(=O)c3cn(-c5cccc(Cl)c5F)nn3)C4C(=O)Nc3ccc(C(=O)O)cc3)CC2)O1 (stereo not drawn) [Example 76, 4-(2-(1-(3-chloro-2-fluorophenyl)-1H-1,2,3-triazole-4-carbonyl)-5-(2-oxo-1-oxa-8-azaspiro[4.5]decan-8-yl)-1,2,3,4-tetrahydroisoquinoline-1-carboximido)benzoic acid, TFA] | – | < 5 | 15.3 | – |
| 4-(2-(5-amino-1-(3-chloro- 2-fluorophenyl)-1H- pyrazole-4-carbonyl)-5-(4- methylpiperazin-1- yl)-1,2,3,4- tetrahydroisoquinoline-1- carboxamido)benzoic acid, 2 TFA salt [Example 212] | – | 20.9 | 2.89 | – |
| COC1CCN(c2cccc3c2CCN(C(=O)[C@H]2CC(c4cccc(Cl)c4F)=NO2)[C@H]3C(=O)Nc2ccccc2F)CC1 (single isomer, unassigned) [Example 236, TFA salt] | > 4340 | – | – | Ki [2]: 454 nM |
| COC1CCN(c2cccc3c2CCN(C(=O)C2CC(=O)N(c4c(F)ccc(Cl)c4F)C2)C3C(=O)Nc2ccc(C(=O)O)cc2)CC1 (stereo not drawn) [Example 71, 4-(2-(1-(3-chloro-2,6-difluorophenyl)-5-oxopyrrolidine-3-carbonyl)-5-(4-methoxypiperidin-1-yl)-1,2,3,4-tetrahydroisoquinoline-1-carboxamido)benzoic acid, TFA salt] | > 6000 | 913 | – | – |
| O=C(O)c1ccc(NC(=O)C2c3cccc(-n4cnnc4)c3CCN2C(=O)c2cn(-c3cccc(Cl)c3F)nn2)cc1 (stereo not drawn) [Example 249, 4-(2-(1-(3-Chloro-2-fluorophenyl)-1H-1,2,3-triazole-4-carbonyl)-5-(4H-1,2,4-triazol-4-yl)-1,2,3,4-tetrahydroisoquinoline-1-carboxamido)benzoic acid, TFA salt] | 20.4 | < 5 | – | – |
| Cn1cc2ccc(-c3cccc4c3CCN(C(=O)c3cn(-c5cccc(Cl)c5F)nn3)C4C(=O)Nc3ccc(C(=O)O)cc3)cc2n1 (stereo not drawn) [Example 162, 4-(2-(1-(3-chloro-2-fluorophenyl)-1H-1,2,3-triazole-4-carbonyl)-5-(2-methyl-2H-indazol-6-yl)-1,2,3,4-tetrahydroisoquinoline-1-carboxamido)benzoic acid] | – | < 5 | 49.9 | – |
| O=C(O)c1ccc(NC(=O)[C@@H]2c3ccccc3CCN2C(=O)c2cn(-c3cccc(Cl)c3F)nn2)cc1 [Example 3, (S)-4-(2-(1-(3-Chloro-2-fluorophenyl)-1H-1,2,3-triazole-4-carbonyl)-1,2,3,4-tetrahydroisoquinoline-1-carboxamido)benzoic acid] | – | 6.44 | 13.1 | – |
| COC1CN(c2cccc3c2CCN(C(=O)c2cn(-c4cccc(Cl)c4F)nn2)C3C(=O)Nc2ccc(C(=O)O)cc2)C1 (stereo not drawn) [Example 83, 4-(2-(1-(3-chloro-2-fluorophenyl)-1H-1,2,3-triazole-4-carbonyl)-5-(3-methoxyazetidin-1-yl)-1,2,3,4-tetrahydroisoquinoline-1-carboxamido)benzoic acid, TFA salt] | – | < 5 | 12.1 | – |
| COc1ncc(-c2cccc3c2CCN(C(=O)c2cn(-c4cccc(Cl)c4F)nn2)C3C(=O)Nc2ccc(C(=O)O)cc2)cn1 (stereo not drawn) [Example 31, 4-(2-(1-(3-chloro-2-fluorophenyl)-1H-1,2,3-triazole-4-carbonyl)-5-(2-methoxypyrimidin-5-yl)-1,2,3,4-tetrahydroisoquinoline-1-carboxamido)benzoic acid] | – | – | 19.9 | Ki [2]: < 5 nM |
| COC1CCN(c2cccc3c2CCN(C(=O)[C@H]2CC(c4cccc(Cl)c4F)=NO2)[C@@H]3C(=O)Nc2cccc(F)c2)CC1 (single isomer, unassigned) [Example 237, TFA salt] | 130 | – | – | Ki [2]: 15.3 nM |
| COC1CCN(c2cccc3c2CCN(C(=O)c2cncc(-c4cccc(Cl)c4F)c2)C3C(=O)Nc2ccc(C(=O)O)cc2)CC1 (stereo not drawn) [Example 323, 4-(2-(5-(3-Chloro-2-fluorophenyl)nicotinoyl)-5-(4-methoxypiperidin-1-yl)-1,2,3,4-tetrahydroisoquinoline-1-carboxamido)benzoic acid, 2 TFA salt] | – | 5.28 | 99.2 | – |
| O=C(Nc1ccc(CO)cc1)C1c2cccc(Br)c2CCN1C(=O)c1cn(-c2cccc(Cl)c2F)nn1 (stereo not drawn) [Example 120, 5-Bromo-2-(1-(3-chloro-2-fluorophenyl)-1H-1,2,3-triazole-4-carbonyl)-N-(4-(hydroxymethyl)phenyl)-1,2,3,4-tetrahydroisoquinoline-1-carboxamide] | 517 | 3940 | – | – |
| CN1CCN(c2cccc3c2CCN(C(=O)c2cn(-c4cccc(Cl)c4F)nn2)[C@@H]3C(=O)Nc2ccc(C(=O)O)cc2)C(=O)C1 [Example 80, (S)-4-(2-(1-(3-chloro-2-fluorophenyl)-1H-1,2,3-triazole-4-carbonyl)-5-(4-methyl-2-oxopiprazin-1-yl)-1,2,3,4-tetrahydroisoquinoline-1-carboxamido)benzoic acid, HCl] | – | < 5 | 6.37 | – |
| O=C(Nc1ccc2ncccc2c1)[C@H]1c2cccc(-c3cncnc3)c2CCN1C(=O)c1cn(-c2cccc(Cl)c2F)nn1 (stereo in doubt) [Example 125, 2-(1-(3-Chloro-2-fluorophenyl)-1H-1,2,3-triazole-4-carbonyl)-5-(pyrimidin-5-yl)-N-(quinolin-6-yl)-1,2,3,4-tetrahydroisoquinoline-1-carboxamide, TFA salt] | 54.1 | 9.62 | – | – |
| CC(C)c1nnc2n1CCN(C(=O)c1cn(-c3cccc(Cl)c3F)nn1)C2C(=O)Nc1ccc(C(=O)O)cc1 (stereo not drawn) [Example 223, 4-(7-(1-(3-Chloro-2-fluorophenyl)-1H-1,2,3-triazole-4-carbonyl)-3-isopropyl-5,6,7,8-tetrahydro-[1,2,4]triazolo[4,3-a]pyrazine-8-carboxamido)benzoic acid] | – | 2630 | 3510 | – |
